According to patent US8536140B2, “Methods for treating inflammatory bowel disease” (MTI Meta Tech Inc., priority 2004, dated 2013):

Assays:
rat intestine = conditions: dietary, rat intestine in vivo; cited from earlier work
CaCo-2 cells [1] = test: Lactate dehydrogenase (LDH) release cytotoxicity assay; format: cell-based, human
Description: The human colon cancer cell line, CaCo-2, was obtained from American Type Culture Collection (Manassas, Va.) and was grown (passage 50-65) under standard incubator conditions (humidified atmosphere, 5% CO2, 37° C.) as adherent monolayer cultures in T-flasks containing Earle's minimum essential medium (EMEM). The cell culture growth medium (pH 7.2) was supplemented with 10% (v/v) fetal bovine serum, 1% (v/v) antibiotic/antimycotic, 26 mM sodium bicarbonate, 10 mM HEPES and 1 mM pyruvic acid. Media was changed every 2-3 days and cell density and viability was assessed with a hemocytometer using the trypan blue dye exclusion method.
Human intestine CaCo-2 cells were seeded at a density of 400,000 cells/ml on a 24 well plate. At confluence, cells were switched into EMEM-4 (4% FBS) and treated with a range of GD3 concentrations (0-64 μg/ml) similar or higher than the amount in human milk on the apical side for 24 h under standard incubator conditions. […] In brief, cell lysates and supernatants were incubated with an enzyme/substrate solution for 30 min at room temperature and the absorbance of colored formazan product was measured at 490 nm with a microtiter plate reader (Molecular Devices, Sunnyvale, Calif.). Absorbance background reading under kit conditions was less than 0.075. Data were expressed as percentage LDH release from cells. […]

CaCo-2 cells [2] = test: Apical and basolateral GD3 uptake, retention, transfer and metabolism in CaCo-2 cell monolayers on trans-well plates; format: in vitro ADME, human
Description: Polarized, differentiated monolayers of CaCo-2 cells grown on trans-well plates were used as a model to study apical and basolateral GD3 uptake. CaCo-2 cells were seeded at a density of 2.5×10^7 cells/ml on 0.4 μm pore inserts in 24 well trans-well plates (Corning Inc., Acton, Mass.). The apical (upper) and basolateral (lower) compartments contained 100 μl and 600 μl of EMEM-10, respectively. CaCo-2 cells were grown to confluence and were differentiated twenty days prior to delivering gangliosides. After 20 days, CaCo-2 cells were differentiated and polarized with intact tight junctions, as confirmed by alkaline phosphatase activity and trans-epithelial resistance measurements (data not shown). On day 21, CaCo-2 cells were transferred into Hank's MEM-4, a low serum, low calcium medium containing no antibiotics to limit serum and calcium interference with ganglioside uptake and antibiotic effects on tight junction permeability. Serum present in the media aided in GD3 solubilization and micelle formation during sonication. CaCo-2 cells were incubated under standard conditions in the absence (control, MEM-4 alone) or presence of purified ganglioside GD3 in MEM-4 for 6, 24 and 48 h at a concentration of 5 or 10 μg/ml. The time frame for exposing human intestine CaCo-2 cells to ganglioside GD3 was chosen to be 6-48 h as previous work on ganglioside GM1 uptake by cultured cells predicts slow and incomplete ganglioside absorption from the apical side. […] The ganglioside treated cells received GD3 on either the BBM (apical) side or the BLM side of CaCo-2 cell monolayers. GD3 delivery on the apical and BLM side of CaCo-2 cells was used as an in vitro model for enteral and intravenous nutrient delivery, respectively. After GD3 incubation, apical and BLM supernatants were collected and cells were washed with PBS and Tris buffer containing EDTA. CaCo-2 cells from each trans-well insert were trypsinized, pooled together in Tris-mannitol buffer and sonicated to form cell lysates. Cell lysates were saved for protein and ganglioside analysis.
Total and individual gangliosides were measured with a colorimetric sialic acid assay as ganglioside bound N-acetyl neuraminic acid (GG-NANA). An aliquot of purified ganglioside sample was dried under N2 gas and dissolved with 0.5 ml of ddH20 and 0.5 ml of resorcinol-HCl in screw-capped Teflon-lined tubes. The purple-blue color developed by reacting resorcinol reagent with ganglioside sialic acid at 160° C. for 8 min was extracted into butylacetate/butanol (85:15, v/v) solvent. Optical density was read by a spectrophotometer at 580 nm. For quantitative analysis, N-acetyl neuraminic acid (also known as sialic acid) was used as a standard.
The following equations were used to calculate the percentage and amount of ganglioside GD3 taken up, retained, transferred and metabolized by human intestinal CaCo-2 cells following brush border membrane or basolateral membrane GD3 delivery. For all calculations the values obtained from the control were subtracted off the test groups to correct for small levels of ganglioside present in the serum and cells. In Equation 1, the % uptake=[(amount delivered-amount remaining)*100%] divided by the amount delivered. In Equation 2, the % retention=[amount cell*100%] divided by the amount uptake. In Equation 3, the % transfer=[amount receiving compartment*100%] is divided by the amount uptake. In Equation 4, the % metabolism=[amount uptake−amount retained−amount transferred*100%] divided by the amount uptake.
Sample size determination for a one tailed comparison at 80% power to detect a 4-5 fold increase in GM1 levels in skin fibroblasts (0.2 nmol/mg protein to 0.9 nmol/mg protein, P<0.05) requires a sample size of 3. All data are expressed as the mean±the standard error of the mean for a sample size of n=4 (4 different cell passages) for intestine cell sensitivity experiments and n=3-4 (3-4 different cell passages) for ganglioside GD3 absorption experiments. […]

[3] = Distribution of ganglioside to the intestine (discussion)
Giardia cells = conditions: after 2 h, cited from earlier work

Molecule: CC(C)CCC[C@@H](C)[C@H]1CC[C@H]2[C@@H]3CC=C4C[C@@H](O)CC[C@]4(C)[C@H]3CC[C@]12C [cholesterol]
- Apical uptake efficiency (rat intestine): 50%

Molecule: II^3 (NeuAc)2-LacCer [GD3]
- LDH release from cells (CaCo-2 cells [1]; 64 μg/ml, 24 h): significant release of LDH
- Concentration at which toxicity to enterocytes begins (CaCo-2 cells [1]; after 24 h exposure): greater than 32 μg/ml
- Apical GD3 uptake efficiency, maximum (CaCo-2 cells [2]; 10 μg/ml apical, after 24 h): 73%
- GD3 uptake, basolateral compared to apical delivery (CaCo-2 cells [2]; 10 μg/ml, 6, 24 and 48 h): faster and more efficient
- Time course of GD3 uptake (CaCo-2 cells [2]; 10 μg/ml, 6, 24 and 48 h at 37° C.): rapid and linear for the first 6 h
- Amount of GD3 taken up from the basolateral membrane side when concentration doubled (CaCo-2 cells [2]; 5 or 10 μg/ml, 6 h at 37° C.): twice as high
- Percent of GD3 taken up that was metabolized (CaCo-2 cells [2]; after 6 h apical exposure, 10 μg/ml): 96%
- Drop of the percentage GD3 metabolized (CaCo-2 cells [2]; after 24 h apical exposure): 32%
- GD3 incorporated (CaCo-2 cells [2]; apical delivery of 24 μg, after 24 h): 18.5 µg
- Fate of basolateral membrane GD3 uptake (CaCo-2 cells [2]; following 24 h exposure, 10 μg/ml): completely metabolized

Molecule: II^3 NeuAc-GgOse4Cer [GM1]
- Fraction that could have been distributed to the intestine [3]: at most 6%
- Ganglioside incorporated (Giardia cells): 2.4 µg
- Maximal uptake efficiency (Giardia cells; same amount of ganglioside): 10%

Molecule: II^3 NeuAc-LacCer [GM3]
- Fraction that could have been distributed to the intestine [3]: ≤ 47.4%

Molecule: sphingomyelin
- Apical uptake efficiency (rat intestine): 22-43%
